From patent publication US20240270801A1, “EPITOPE PEPTIDE OF HUMAN ALPHA-SYNUCLEIN AND PHARMACEUTICAL COMPOSITION INCLUDING SAID PEPTIDE” (Sumitomo Pharma Co., Ltd., priority 2021, published 2024)
Non-standard residues stand in square brackets, D forms with d. No end group written: not given here. KLH = keyhole limpet hemocyanin; Ahx = NCCCCCC(=O)O

Tests used:
aggregated human αSyn = assay: Antibody-inducing ability in mice: ELISA antibody titer of immune serum with respect to aggregated human αSyn; format: in vivo, mouse; conditions: for Antibody titer with respect to aggregated human αSyn, relative to control: mice; for Antibody titer with respect to aggregated human αSyn (N = 4 − 6, mean ± standard deviation): Example 2, serum 2 weeks after second administration
Procedure: (§1) Using the various AJ peptide-human αSyn peptide conjugates produced in Example 1, an antibody-inducing ability with respect to human αSyn in mice was evaluated. The various AJ-human αSyn peptide conjugates (250 μg/mouse) or KLH-DMPVDPDN (25 μg/mouse) in physiological saline were intramuscularly administered to balb/c mice (females, 6 weeks old, CLEA Japan, Inc.) twice at a 2-week interval for immunization using aluminum hydroxide (Alum) (InvivoGen, 50 μg/mouse) as an adjuvant. As a negative control, physiological saline (100 μL/mouse) comprising the same amount of aluminum hydroxide was administered twice. Two weeks after the second administration, serum was recovered to evaluate the antibody titer with respect to human αSyn by ELISA.
(§2) ELISA was performed by the following method. 96-well plates were coated with human αSyn (Sigma) at 0.2 μg/well. After washing with PBST (Phosphate Buffered Saline comprising 0.05% Tween) once, blocking was performed with 3% skim milk (FUJIFILM Wako Pure Chemical Corporation). After washing with PBST three times, diluted serum was added to cause a reaction at room temperature for 1 hour. Furthermore, after washing with PBST three times, Goat anti-mouse IgG-HRP (abcam) was added to cause a reaction at room temperature for 1 hour. After washing with PBST three times, SureBlue TMB Microwell Peroxidase Substrate (KPL) was added to cause a reaction at room temperature for 10 minutes while light shielding. An equal volume of a TMB Stop Solution (KPL) was added to stop the reaction, and the absorbance at 450 nm was measured. ELISA with respect to aggregated human αSyn was performed by coating with the aggregated human αSyn (Stress Marq) at 15 ng/well instead of human αSyn in the above-mentioned method.
The antibody-inducing ability of the AJ-human αSyn peptide conjugates (AJ-p54, AJ-p54-KLH, and AJ-DMPVDPDN) produced in Example 1 with respect to human αSyn and aggregated human αSyn in mice was evaluated. Physiological saline or the AJ-human αSyn peptide conjugate (250 μg/mouse) was intramuscularly administered to balb/c mice (females, 6 weeks old, CLEA Japan, Inc.) twice at a 2-week interval using Alum (InvivoGen, 50 μg/mouse) as an adjuvant. Furthermore, KLH-DMPVDPDN (25 μg/mouse) was administered using Alum (InvivoGen, 50 μg/mouse) as an adjuvant. Two weeks after the second administration, serum was recovered to evaluate the antibody titer by ELISA. ELISA was performed by the method described in Example 2.
The antibody-inducing ability of the produced various human αSyn peptide conjugates with respect to human αSyn and aggregated human αSyn in the mice was evaluated by the method described in Example 2 using the antibody titers with respect to human αSyn and aggregated human αSyn of the mouse immune serum. […] In Table 6, the antibody titer of AJ-p242, AJ-p244, AJ-p347, or AJ-p361 is shown with the antibody titer of AJ-p150 as a control being 1 (logarithm). In addition, the antibody titers of AJ-p229, AJ-p237, and AJ-p298 are shown with the antibody titer of AJ-p54 as a control being 1 (logarithm).
The antibody-inducing ability of the AJ-human αSyn peptide conjugates with a modified linker with respect to human αSyn and aggregated human αSyn in the mice was evaluated using the antibody titers with respect to human αSyn and aggregated human αSyn of the mouse immune serum. […] In Table 8, the antibody titers of the AJ-human αSyn peptide conjugates with various modified linkers comprising p54 are shown with the antibody titer of AJ-p54 as a control being 1 (logarithm). In addition, the antibody titers of the AJ-human αSyn peptide conjugates with various modified linkers comprising p150 are shown with the antibody titer of AJ-p150 as a control being 1 (logarithm).

human αSyn = assay: Antibody-inducing ability in mice: ELISA antibody titer of immune serum with respect to human αSyn; format: in vivo, mouse; parameters: key to Antibody titer with respect to human αSyn, relative to control: log titer relative to control conjugate (control = 1); conditions: for Antibody titer compared with control conjugate (in words): Example 9, mice, human αSyn and aggregated human αSyn, control AJ-p150 or AJ-p54; for Antibody titer with respect to human αSyn, relative to control / Antibody titer (N = 4 − 6, mean ± standard deviation) with respect to human αSyn: mice; for Antibody titer with respect to human αSyn (N = 4 − 6, mean ± standard deviation): Example 2, serum 2 weeks after second administration; for Antibody titer (N = 4 − 6, mean ± standard deviation) with respect to human αSyn: Example 3, same manner as Example 2
Procedure: as §1
as §2, with “above-mentioned method. […]” for “above-mentioned method.”
The antibody-inducing ability of the produced various human αSyn peptide conjugates with respect to human αSyn and aggregated human αSyn in the mice was evaluated by the method described in Example 2 using the antibody titers with respect to human αSyn and aggregated human αSyn of the mouse immune serum. […] In Table 6, the antibody titer of AJ-p242, AJ-p244, AJ-p347, or AJ-p361 is shown with the antibody titer of AJ-p150 as a control being 1 (logarithm). In addition, the antibody titers of AJ-p229, AJ-p237, and AJ-p298 are shown with the antibody titer of AJ-p54 as a control being 1 (logarithm). […]

[1] = Example 9, N = 4, titer of AJ-p150 or AJ-p54 as control being 1 (logarithm)
[2] = balb/c mice, i.m. twice at 2-week interval, Alum, AJ conjugates 250 μg/mouse, KLH-DMPVDPDN 25 μg/mouse
[3] = Example 4, balb/c mice, i.m. twice at 2-week interval, Alum, AJ conjugates 250 μg/mouse, KLH-DMPVDPDN 25 μg/mouse
[4] = Example 10, modified linker, titer of AJ-p54 or AJ-p150 as control being 1 (logarithm)

| Substance | Antibody titer with respect to aggregated human αSyn, relative to control (aggregated human αSyn; [1]) | Antibody titer compared with control conjugate (in words) (human αSyn) | Antibody titer with respect to human αSyn, relative to control (human αSyn; [1]) | Antibody titer with respect to aggregated human αSyn (N = 4 − 6, mean ± standard deviation) (aggregated human αSyn; [2]) | Antibody titer with respect to human αSyn (N = 4 − 6, mean ± standard deviation) (human αSyn; [2]) | other results |
| --- | --- | --- | --- | --- | --- | --- |
| ELKLIFLHRLKRLRKRLKRKXDAFEMPSEEG (ELKLIFLHRLKRLRKRLKRK[Ahx]DAFEMPSEEG) [AJ-p361] | 0.95 | same level of an antibody titer | 0.92 | – | – | – |
| ELKLIFLHRLKRLRKRLKRKXDAYEMPSEEG (ELKLIFLHRLKRLRKRLKRK[Ahx]DAYEMPSEEG) [AJ-p276] | – | – | – | 896 ± 256 | 1792 ± 512 | – |
| ELKLIFLHRLKRLRKRLKRKXDMPVDPDN (ELKLIFLHRLKRLRKRLKRK[Ahx]DMPVDPDN) [AJ-DMPVDPDN, reference compound] | – | – | – | – | – | Induction of the antibody to aggregated human αSyn (in words) (aggregated human αSyn; Example 4, balb/c mice): very weak antibody-inducing effect; Antibody titer with respect to aggregated human αSyn (mean ± standard deviation) (aggregated human αSyn; [3]): 358 ± 140; Induction of the antibody to human αSyn (in words) (human αSyn; Example 4, balb/c mice): very weak antibody-inducing effect; Antibody titer with respect to human αSyn (mean ± standard deviation) (human αSyn; [3]): 168 ± 122 |
| ELKLIFLHRLKRLRKRLKRKXEAAEMPSEEG (ELKLIFLHRLKRLRKRLKRK[Ahx]EAAEMPSEEG) [AJ-p244] | 1.10 | same level of an antibody titer | 1.06 | – | – | – |
| ELKLIFLHRLKRLRKRLKRKXEAFEMPSEEG (ELKLIFLHRLKRLRKRLKRK[Ahx]EAFEMPSEEG) [AJ-p277] | – | – | – | 576 ± 322 | 1920 ± 1585 | – |
| ELKLIFLHRLKRLRKRLKRKXEAYEMPSEDG (ELKLIFLHRLKRLRKRLKRK[Ahx]EAYEMPSEDG) [AJ-p283, AJ peptide linked to p283 via ε-Acp (X)] | – | – | – | 1152 ± 644 | 2304 ± 1289 | Antibody-inducing ability regarding the aggregated human αSyn (in words) (aggregated human αSyn; Example 2, balb/c mice): particularly strong antibody-inducing ability |
| ELKLIFLHRLKRLRKRLKRKXEAYEMPSEE (ELKLIFLHRLKRLRKRLKRK[Ahx]EAYEMPSEE) [AJ-p150, AJ peptide linked to p150 via ε-Acp (X)] | 1 | – | 1 | 576 ± 322 | 2176 ± 1471 | Antibody titer with respect to aggregated human αSyn, relative to control (aggregated human αSyn; [4]): 1; Antibody titer with respect to human αSyn, relative to control (human αSyn; [4]): 1 |
| ELKLIFLHRLKRLRKRLKRKXHAFEMPSEEG (ELKLIFLHRLKRLRKRLKRK[Ahx]HAFEMPSEEG) [AJ-p347] | 0.97 | same level of an antibody titer | 0.97 | – | – | – |
| ELKLIFLHRLKRLRKRLKRKXKKDELGKDE (ELKLIFLHRLKRLRKRLKRK[Ahx]KKDELGKDE) [AJ-p298] | 0.93 | same level of an antibody titer | 0.82 | – | – | – |
| KKDQLGKNE-C-KLH (KKDQLGKNEC-{KLH}) [p54-KLH, KLH-human αSyn peptide conjugate] | – | – | – | – | – | Induction of the antibody to human αSyn (in words) (human αSyn; Example 3, mice): the antibody to human αSyn was induced; Antibody titer (N = 4 − 6, mean ± standard deviation) with respect to human αSyn (human αSyn): 3072 ± 2748 |
| KLH-C-ELKLIFLHRLKRLRKRLKRKXKKDQLGKNE ({KLH}-CELKLIFLHRLKRLRKRLKRK[Ahx]KKDQLGKNE) [KLH-AJ-p54, KLH-modified AJ-human αSyn peptide conjugate, KLH linked via cysteine to the N-terminal] | – | – | – | – | – | Induction of the antibody to human αSyn (in words) (human αSyn; Example 3, mice): induced to the same extent; Antibody titer (N = 4 − 6, mean ± standard deviation) with respect to human αSyn (human αSyn): 1707 ± 1240 |
| KLH-C-KKDQLGKNE ({KLH}-CKKDQLGKNE) [KLH-p54, KLH-human αSyn peptide conjugate] | – | – | – | – | – | Induction of the antibody to human αSyn (in words) (human αSyn; Example 3, mice): the antibody to human αSyn was induced; Antibody titer (N = 4 − 6, mean ± standard deviation) with respect to human αSyn (human αSyn): 4096 ± 2243 |
